Drawing on ChEMBL document CHEMBL3045802, “Synthesis and in vitro antitumor activity of new quinoline, pyrimido[4,5-b]quinoline, [1,2,3]triazino[4,5-b]quinoline, and [1,2,4]triazolo[2,3:3,4]pyrimido[6,5-b]quinoline analogs” (2013), this text covers inhibition of growth for three compounds.

What all share (type): functional
Test [1] concerns SK-OV-3. Put plainly: Cytotoxicity against Homo sapiens (human) SKOV3 cells assessed as growth inhibition at 10 uM after 48 hr by coulter counter analysis. Conditions: SK-OV-3, 48 h, read-out: GI.
In test [2] the test system is NCI-H23. As to the kind of experiment: Cytotoxicity against Homo sapiens (human) NCI-H23 cells assessed as growth inhibition at 10 uM after 48 hr by coulter counter analysis. Conditions: NCI-H23, 48 h, read-out: GI.
The test system of test [3] is TK-10. As to the kind of experiment: Cytotoxicity against Homo sapiens (human) TK10 cells assessed as growth inhibition at 10 uM after 48 hr by coulter counter analysis. Conditions: TK-10, 48 h, read-out: GI.
In test [4] the test system is OVCAR-4. As to the kind of experiment: Cytotoxicity against Homo sapiens (human) OVCAR4 cells assessed as growth inhibition at 10 uM after 48 hr by coulter counter analysis. The conditions noted are these: OVCAR-4, 48 h, read-out: GI.
For test [5], the system named is BT-549. Put plainly: Cytotoxicity against Homo sapiens (human) BT549 cells assessed as growth inhibition at 10 uM after 48 hr by coulter counter analysis. Conditions: BT-549, 48 h, read-out: GI.
Test [6] has as its system CCRF-CEM. As to the kind of experiment: Cytotoxicity against Homo sapiens (human) CCRF-CEM cells assessed as growth inhibition at 10 uM after 48 hr by coulter counter analysis. The conditions noted are these: read-out: GI.
For test [7], the system named is RPMI-8226. As to the kind of experiment: Cytotoxicity against Homo sapiens (human) RPMI8226 cells assessed as growth inhibition at 10 uM after 48 hr by coulter counter analysis. Conditions: RPMI-8226, 48 h, read-out: GI.
For test [8], the system named is NCI-H522. As to the kind of experiment: Cytotoxicity against Homo sapiens (human) NCI-H522 cells assessed as growth inhibition at 10 uM after 48 hr by coulter counter analysis. The conditions noted are these: NCI-H522, 48 h, read-out: GI.
Test [9] relates to LOX IMVI. Put plainly: Cytotoxicity against Homo sapiens (human) LOXIMVI cells assessed as growth inhibition at 10 uM after 48 hr by coulter counter analysis. Conditions: read-out: GI.
The subject of test [10] is A498. Put plainly: Cytotoxicity against Homo sapiens (human) A498 cells assessed as growth inhibition at 10 uM after 48 hr by coulter counter analysis. Conditions: A498, 48 h, read-out: GI.
The test system of test [11] is M14. Put plainly: Cytotoxicity against Homo sapiens (human) M14 cells assessed as growth inhibition at 10 uM after 48 hr by coulter counter analysis. The conditions noted are these: M14, 48 h, read-out: GI.
Test [12] has as its system MCF7. As to the kind of experiment: Cytotoxicity against Homo sapiens (human) MCF7 cells assessed as growth inhibition at 10 uM after 48 hr by coulter counter analysis. The conditions noted are these: MCF7, 48 h, read-out: GI.
Test [13] relates to SK-MEL-28. As to the kind of experiment: Cytotoxicity against Homo sapiens (human) SK-MEL-28 cells assessed as growth inhibition at 10 uM after 48 hr by coulter counter analysis. The conditions noted are these: SK-MEL-28, 48 h, read-out: GI.
Test [14] has as its system HOP-92. As to the kind of experiment: Cytotoxicity against Homo sapiens (human) HOP92 cells assessed as growth inhibition at 10 uM after 48 hr by coulter counter analysis. Conditions: HOP-92, 48 h, read-out: GI.
The subject of test [15] is SF-295. Put plainly: Cytotoxicity against Homo sapiens (human) SF295 cells assessed as growth inhibition at 10 uM after 48 hr by coulter counter analysis. Conditions: SF-295, 48 h, read-out: GI.
Test [16] relates to NCI-H460. As to the kind of experiment: Cytotoxicity against Homo sapiens (human) NCI-H460 cells assessed as growth inhibition at 10 uM after 48 hr by coulter counter analysis. Conditions: NCI-H460, 48 h, read-out: GI.
In test [17] the test system is HL-60(TB). As to the kind of experiment: Cytotoxicity against Homo sapiens (human) HL-60(TB) cells assessed as growth inhibition at 10 uM after 48 hr by coulter counter analysis. Conditions: HL-60, 48 h, read-out: GI.
Test [18] deals with ACHN. As to the kind of experiment: Cytotoxicity against Homo sapiens (human) ACHN cells assessed as growth inhibition at 10 uM after 48 hr by coulter counter analysis. Conditions: read-out: GI.
The subject of test [19] is OVCAR-5. Put plainly: Cytotoxicity against Homo sapiens (human) OVCAR5 cells assessed as growth inhibition at 10 uM after 48 hr by coulter counter analysis. The conditions noted are these: OVCAR-5, 48 h, read-out: GI.
Test [20] deals with Malme-3M. Put plainly: Cytotoxicity against Homo sapiens (human) MALME-3M cells assessed as growth inhibition at 10 uM after 48 hr by coulter counter analysis. The conditions noted are these: read-out: GI.
For test [21], the system named is DU-145. As to the kind of experiment: Cytotoxicity against Homo sapiens (human) DU145 cells assessed as growth inhibition at 10 uM after 48 hr by coulter counter analysis. Conditions: DU-145, 48 h, read-out: GI.
Test [22] concerns MDA-MB-435. Put plainly: Cytotoxicity against Homo sapiens (human) MDA-MB-435 cells assessed as growth inhibition at 10 uM after 48 hr by coulter counter analysis. Conditions: MDA-MB-435, 48 h, read-out: GI.
Test [23] in a line: Cytotoxicity against Homo sapiens (human) NCI-ADR-RES cells assessed as growth inhibition at 10 uM after 48 hr by coulter counter analysis. The conditions noted are these: read-out: GI.
The test system of test [24] is UACC-62. Put plainly: Cytotoxicity against Homo sapiens (human) UACC62 cells assessed as growth inhibition at 10 uM after 48 hr by coulter counter analysis. The conditions noted are these: UACC-62, 48 h, read-out: GI.

For `O=c1[nH]c(-c2ccccc2)nc2c1C(c1ccc(Cl)cc1)C1=C(CCCC1)N2` (configuration not stated), the inhibition of growth at 10 µM in test [1], in [2], in [3], in [4], in [5] and in [6] was below 10% in each case. The inhibition of growth at 10 µM was below 10% in test [7]; 20.2% in test [8]; 11.2% in [9]; 11.4% in test [10]; below 10% in [11]; below 10% in test [12]. Further, the inhibition of growth at 10 µM in test [13] was below 10%; in [14], 12%; in test [15], below 10%; in test [16] it was below 10%; in [17], below 10%; in [18], below 10%. The inhibition of growth at 10 µM in test [19], in [20], in test [21], in test [22], in test [23] and in [24] was below 10% throughout.
As for `Oc1ccc(-c2nc3c4c(ncn3n2)NC2=C(CCCC2)C4c2ccc(Cl)cc2)cc1` (configuration not stated), the inhibition of growth at 10 µM was below 10% in test [1]; 12.9% in test [2]; below 10% in [3]; below 10% in test [4]; below 10% in test [5]; 13.2% in [6]. For the same compound, the inhibition of growth at 10 µM was 13.2% in [7]; below 10% in test [8]; 14.3% in [9]; 25.1% in [10]; below 10% in [11]; below 10% in [12]. The inhibition of growth at 10 µM in [13] is below 10%; in [14] it was 42.1%; in [15], below 10%; in test [16] it was below 10%; in test [17], 13.5%; in test [18], below 10%. The inhibition of growth at 10 µM is below 10% in test [19]; 13% in test [20]; below 10% in test [21]; below 10% in [22]; below 10% in test [23]; 17.4% in [24].
On to `COc1ccc(C2C3=C(CCCC3)Nc3nc(-c4ccccc4)[nH]c(=O)c32)cc1OC` (configuration not stated), for which the inhibition of growth at 10 µM in [1], in test [2], in test [3], in [4], in test [5] and in [6] was below 10% in each case. For the same compound, the inhibition of growth at 10 µM is below 10% in test [7]; 14.5% in test [8]; below 10% in test [9]; 13.2% in [10]; below 10% in test [11]; below 10% in test [12]. The inhibition of growth at 10 µM in [13] is below 10%; in test [14] it was 13.3%; in test [15], below 10%; in test [16], below 10%; in [17] it was below 10%; in [18], 18%. Further, the inhibition of growth at 10 µM was 12.6% in test [19]; below 10% in test [20]; below 10% in test [21]; below 10% in test [22]; below 10% in test [23]; 14.4% in test [24].
